In patent US7279476B2, “Pyrazole-derived kinase inhibitors and uses thereof” (Vertex Pharmaceuticals Incorporated, priority 2001, dated 2007):

Experiments:
AKT = AKT inhibition standard coupled enzyme assay; format: biochemical; conditions: screened at 30 μM compound, 45 nM AKT, 170 μM ATP; compounds with greater than 50% inhibition titrated
Protocol: Compounds were screened for their ability to inhibit AKT using a standard coupled enzyme assay (Fox et al., Protein Sci., (1998) 7, 2249). Assays were carried out in a mixture of 100 mM HEPES 7.5, 10 mM MgCl2, 25 mM NaCl, 1 mM DTT and 1.5% DMSO. Final substrate concentrations in the assay were 170 μM ATP (Sigma Chemicals) and 200 μM peptide (RPRAATF, American Peptide, Sunnyvale, Calif.). Assays were carried out at 30° C. and 45 nM AKT. Final concentrations of the components of the coupled enzyme system were 2.5 mM phosphoenolpyruvate, 300 μM NADH, 30 μg/ML pyruvate kinase and 10 μg/ml lactate dehydrogenase.
An assay stock buffer solution was prepared containing all of the reagents listed above, with the exception of AKT, DTT, and the test compound of interest. 56 μl of the stock solution was placed in a 384 well plate followed by addition of 1 μl of 2 mM DMSO stock containing the test compound (final compound concentration 30 μM). The plate was preincubated for about 10 minutes at 30° C. and the reaction initiated by addition of 10 μl of enzyme (final concentration 45 nM) and 1 mM DTT. Rates of reaction were obtained using a BioRad Ultramark plate reader (Hercules, Calif.) over a 5 minute read time at 30° C.

[1] = system: Colon cancer cells (HT-29 cell line); assay: ERK inhibition cell proliferation assay (3H-thymidine uptake); format: cell-based; conditions: Homo sapiens, HT-29 cells, 3 days incubation
Protocol: Compounds may be assayed for the inhibition of ERK2 by a cell proliferation assay. In this assay, a complete media is prepared by adding 10% fetal bovine serum and penicillin/streptomycin solution to RPMI 1640 medium (JRH Biosciences). Colon cancer cells (HT-29 cell line) are added to each of 84 wells of a 96 well plate at a seeding density of 10,000 cells/well/150 μL. The cells are allowed to attach to the plate by incubating at 37° C. for 2 hours. A solution of test compound is prepared in complete media by serial dilution to obtain the following concentrations: 20 μM, 6.7 μM, 2.2 μM, 0.74 μM, 0.25 μM, and 0.08 μM. The test compound solution (50 μL) is added to each of 72 cell-containing wells. To the 12 remaining cell-containing wells, only complete media (200 μL) is added to form a control group in order to measure maximal proliferation. To the remaining 12 empty wells, complete media is added to form a vehicle control group in order to measure background. The plates are incubated at 37° C. for 3 days. A stock solution of ^3H-thymidine (1 mCi/mL, New England Nuclear, Boston, Mass.) is diluted to 20 μCi/mL in RPMI medium then 20 μL of this solution is added to each well. The plates are further incubated at 37° C. for 8 hours then harvested and analyzed for ^3H-thymidine uptake using a liquid scintillation counter.

activated ERK2 = activated ERK2 (Homo sapiens, UniProt P28482); assay: ERK2 inhibition spectrophotometric coupled-enzyme assay; format: biochemical; conditions: 10 nM activated ERK2, 65 μM ATP, 30° C., pH 7.5; read-out: ERK2 Inhibitory Activity (Ki class)
Protocol: Compounds are assayed for the inhibition of ERK2 by a spectrophotometric coupled-enzyme assay (Fox et al (1998) Protein Sci 7, 2249). In this assay, a fixed concentration of activated ERK2 (10 nM) is incubated with various concentrations of the compound in DMSO (2.5%) for 10 min. at 30° C. in 0.1 M HEPES buffer, pH 7.5, containing 10 mM MgCl2, 2.5 mM phosphoenolpyruvate, 200 μM NADH, 150 μg/mL pyruvate kinase, 50 μg/mL lactate dehydrogenase, and 200 μM erktide peptide. The reaction is initiated by the addition of 65 μM ATP. The rate of decrease of absorbance at 340 nm is monitored, which indicates the extent of uninhibited enzyme present in the assay. The IC50 is evaluated from the rate data as a function of inhibitor concentration.
The compound numbers correspond to the compound numbers in Tables 1 and 2.

Chain of activated ERK2 (P28482 whole entry): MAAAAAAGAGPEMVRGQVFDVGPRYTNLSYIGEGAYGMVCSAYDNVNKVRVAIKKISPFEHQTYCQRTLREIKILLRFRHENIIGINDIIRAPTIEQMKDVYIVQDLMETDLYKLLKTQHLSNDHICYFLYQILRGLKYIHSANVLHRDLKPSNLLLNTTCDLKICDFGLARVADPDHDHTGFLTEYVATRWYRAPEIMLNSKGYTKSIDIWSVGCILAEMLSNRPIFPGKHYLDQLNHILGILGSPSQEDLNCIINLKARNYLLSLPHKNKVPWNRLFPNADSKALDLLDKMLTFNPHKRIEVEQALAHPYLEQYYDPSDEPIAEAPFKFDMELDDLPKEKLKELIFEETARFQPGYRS

With `O=C(N[C@H](CO)c1ccc(F)c(Cl)c1)c1cc(-c2n[nH]cc2-c2ccc(CN3CCOCC3)c(Cl)c2)c[nH]1` [II-6, 4-[4-(3-Chloro-4-morpholin-4-ylmethyl-phenyl)-1H-pyrazol-3-yl]-1H-pyrrole-2-carboxylic acid [1-(3-chloro-4-fluoro-phenyl)-2-hydroxy-ethyl]-amide] the “inhibit AKT” value (AKT) was “inhibit AKT”, the IC50 [1] was under 10 µM and the Ki (activated ERK2) was under 1 µM.

For `CC(=O)N1CCC[C@@H]1C(=O)NCc1ccc(-c2cn[nH]c2-c2c[nH]c(C(=O)NC(CO)c3ccc(F)c(Cl)c3)c2)cc1Cl` (some centres unmarked) [II-4], the Ki (activated ERK2) was under 1 µM.

For `O=C(N[C@H](CO)c1ccc(F)c(Cl)c1)c1cc(-c2n[nH]cc2-c2ccc(CNCc3cc[n+]([O-])cc3)c(Cl)c2)c[nH]1` [II-8], the “inhibit AKT” value (AKT) was “inhibit AKT” and the Ki (activated ERK2) was under 1 µM.

Work on `O=C(N[C@H](CO)c1ccccc1)c1cc(-c2[nH]ncc2-c2ccc(C(=O)N3CCOCC3)c(Cl)c2)c[nH]1` [II-1] yielded an IC50 [1] of under 10 µM and a Ki (activated ERK2) of under 1 µM.

Work on `CC(=O)N1C[C@H](O)C[C@H]1C(=O)NCc1ccc(-c2c[nH]nc2-c2c[nH]c(C(=O)N[C@H](CO)c3ccc(F)c(Cl)c3)c2)cc1Cl` (stereo in doubt) [II-2, 4-[4-(4-{[(1-Acetyl-4-hydroxy-pyrrolidine-2-carbonyl)-amino]-methyl}-3-chloro-phenyl)-1H-pyrazol-3-yl]-1H-pyrrole-2-carboxylic acid [1-(3-chloro-4-fluoro-phenyl)-2-hydroxy-ethyl]-amide] yielded a Ki (activated ERK2) of under 1 µM.

With `O=C(CCCCCNc1ccc([N+](=O)[O-])c2nonc12)NCc1ccc(-c2cn[nH]c2-c2c[nH]c(C(=O)N[C@H](CO)c3ccc(F)c(Cl)c3)c2)cc1Cl` [II-5] the Ki (activated ERK2) was under 1 µM.

With `O=C(NCc1ccc(-c2cn[nH]c2-c2c[nH]c(C(=O)N[C@H](CO)c3ccc(F)c(Cl)c3)c2)cc1Cl)O[C@H]1CCOC1` [II-7] the Ki (activated ERK2) was under 1 µM.

Work on `CC(=O)N1CCC[C@H]1C(=O)NCc1ccc(-c2cn[nH]c2-c2c[nH]c(C(=O)NC(CO)c3ccc(F)c(Cl)c3)c2)cc1Cl` (some centres unmarked) [II-3] yielded a Ki (activated ERK2) of under 1 µM.

Compound `O=C(NCc1ccccc1)c1cc(-c2[nH]ncc2-c2cccc(CN3CCOCC3)c2)c[nH]1` [II-10] has a Ki (activated ERK2) of over 5 µM.

Compound `O=C(N[C@H](CO)c1ccc(F)c(Cl)c1)c1cc(-c2n[nH]cc2-c2ccc(CN(Cc3cc[n+]([O-])cc3)Cc3cc[n+](O)cc3)c(Cl)c2)c[nH]1` [II-9, 4-[4-(4-{[Bis-(1-oxy-pyridin-4-ylmethyl)-amino]-methyl}-3-chloro-phenyl)-1H-pyrazol-3-yl]-1H-pyrrole-2-carboxylic acid [1-(3-chloro-4-fluoro-phenyl)-2-hydroxy-ethyl]-amide] has a Ki (activated ERK2) of under 1 µM.
